Reference: patent US12534469B2 (CHILDREN'S HOSPITAL MEDICAL CENTER, priority 2020, dated 2026)
Numbering of substitutions follows the chain as printed.

What was measured:
FLT3 D835Y = target: T1, FLT3 D835Y (Homo sapiens, UniProt P36888, D835Y); assay: DiscoverX KINOMEscan competition binding assay, FLT3 D835Y
T1 construct: purchased DiscoverX (KINOMEscan); host or cells: E. coli (T7 phage) or HEK-293
T1 sequence (P36888 27-993 D835Y): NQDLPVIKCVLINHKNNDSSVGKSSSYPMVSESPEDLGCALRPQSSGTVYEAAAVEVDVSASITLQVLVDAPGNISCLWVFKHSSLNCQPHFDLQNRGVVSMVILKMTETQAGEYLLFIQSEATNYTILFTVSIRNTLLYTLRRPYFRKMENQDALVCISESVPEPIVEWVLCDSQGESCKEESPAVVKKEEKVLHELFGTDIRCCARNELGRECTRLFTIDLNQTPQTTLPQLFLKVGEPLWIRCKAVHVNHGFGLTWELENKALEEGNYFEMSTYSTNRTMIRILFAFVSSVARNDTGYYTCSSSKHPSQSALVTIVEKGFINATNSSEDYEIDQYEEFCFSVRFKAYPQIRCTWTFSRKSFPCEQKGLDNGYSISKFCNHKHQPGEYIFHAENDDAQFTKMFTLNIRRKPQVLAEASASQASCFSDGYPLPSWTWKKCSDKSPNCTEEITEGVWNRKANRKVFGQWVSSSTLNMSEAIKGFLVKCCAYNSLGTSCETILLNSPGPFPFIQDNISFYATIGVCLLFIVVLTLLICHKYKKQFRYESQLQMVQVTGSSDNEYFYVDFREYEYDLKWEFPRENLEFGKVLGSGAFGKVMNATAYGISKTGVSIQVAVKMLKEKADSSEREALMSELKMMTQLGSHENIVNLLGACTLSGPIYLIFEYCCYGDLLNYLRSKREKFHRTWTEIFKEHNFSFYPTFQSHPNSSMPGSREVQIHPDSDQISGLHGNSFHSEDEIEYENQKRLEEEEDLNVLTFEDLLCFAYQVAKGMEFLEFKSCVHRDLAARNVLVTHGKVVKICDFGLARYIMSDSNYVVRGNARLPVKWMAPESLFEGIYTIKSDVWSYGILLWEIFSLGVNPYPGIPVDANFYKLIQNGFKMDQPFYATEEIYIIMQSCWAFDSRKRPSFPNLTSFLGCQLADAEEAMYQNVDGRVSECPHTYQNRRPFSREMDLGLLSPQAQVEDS
Source text: (§1) Kinase binding data were obtained for various exemplary compounds prepared according to Examples 1-25 using the DiscoverX KINOMEscan® active site-directed competition binding site-directed assay protocol described below. […] As a result, the data report thermodynamic interaction affinities (Kd values), rather than IC50 values that are dependent on ATP concentrations. The assay uses a DNA-tagged version of the protein kinase, and an immobilized ligand bound to a solid support. Compounds that directly or indirectly prevent kinase binding to the immobilized ligand reduce the amount of kinase captured on the solid support, which is detected using an ultra-sensitive qPCR method. Affinity constants reported from the assay have been reported to be independent of the immobilized ligand used that is coupled to the solid support (See supplemental information in Fabian, M. A. et. al., (2005) Nat. Biotechnol. 23, 329-336; Wodicka, L. M. et. al., (2010) Chem. Biol. 17, 1241-1249.)
(§2) Kinase-tagged T7 phage strains were prepared in an E. coli host derived from the BL21 strain. E. coli were grown to log-phase and infected with T7 phage and incubated with shaking at 32° C. until lysis. The lysates were centrifuged and filtered to remove cell debris. The remaining kinases were produced in HEK-293 cells and subsequently tagged with DNA for qPCR detection. […] The liganded beads were blocked with excess biotin and washed with blocking buffer (SeaBlock (Pierce), 1% BSA, 0.05% Tween 20, 1 mM DTT) to remove unbound ligand and to reduce non-specific binding. […] Test compounds were prepared as 111× stocks in 100% DMSO. Kds were determined using an 11-point 3-fold compound dilution series with three DMSO control points. […] The compounds were then diluted directly into the assays such that the final concentration of DMSO was 0.9%. All reactions were performed in polypropylene 384-well plates. Each was a final volume of 0.02 mL. […] The kinase concentration in the eluates was measured by qPCR.
(§3) Binding constants (Kds) were calculated with a standard dose-response curve using the Hill equation. […]

FLT3 R834Q = target: T2, FLT3 R834Q (Homo sapiens, UniProt P36888, R834Q); assay: DiscoverX KINOMEscan competition binding assay, FLT3 R834Q
T2 construct: purchased DiscoverX (KINOMEscan); host or cells: E. coli (T7 phage) or HEK-293
T2 sequence (P36888 27-993 R834Q): T1 sequence (P36888 27-993 D835Y) with R808Q, Y809D
Source text: as §1, §2, §3

## COc1cc2ncc(-c3cccc(N[C@H]4CNCC[C@@H]4F)n3)n2nc1C1CC1 [Compound 102, 6-(6-cyclopropyl-7-methoxyimidazo[1,2-b]pyridazin-3-yl)-N-((3S,4S)-4-fluoropiperidin-3-yl)pyridin-2-amine]
FLT3 D835Y
  Kd: 0.16 nM
FLT3 R834Q
  Kd: 0.61 nM

## COc1cc2ncc(-c3cccc(N[C@H]4CNC[C@@H]4F)n3)n2nc1C1CC1 [Compound 96, 6-(6-cyclopropyl-7-methoxyimidazo[1,2-b]pyridazin-3-yl)-N-((3S,4S)-4-fluoropyrrolidin-3-yl)pyridin-2-amine]
FLT3 D835Y
  Kd: 0.46 nM
FLT3 R834Q
  Kd: 1.6 nM

## COc1cc2ncc(-c3cccc(N[C@@H]4CCNC4)n3)n2nc1C1CC1 [Compound 97, (R)-6-(6-cyclopropyl-7-methoxyimidazo[1,2-b]pyridazin-3-yl)-N-(pyrrolidin-3-yl)pyridin-2-amine]
FLT3 D835Y
  Kd: 0.063 nM
FLT3 R834Q
  Kd: 0.8 nM
